Measurements taken from patent US20220281848A1, “PYRAZOLE-SUBSTITUTED PYRROLIDINONES AS HERBICIDES” (FMC Corporation, priority 2019, published 2022).

Tested on: plants
Assay: Test D pre-emergence, other plants of Tables D1 and D3
Format: in vivo
Settings: 20 DAA; for damage to plant (100=total damage to plant; 0=no damage to plant), BIDPI / damage to plant (100=total damage to plant; 0=no damage to plant), BRAPL / damage to plant (100=total damage to plant; 0=no damage to plant), CYPES / damage to plant (100=total damage to plant; 0=no damage to plant), EPHHL / damage to plant (100=total damage to plant; 0=no damage to plant), GLXMA / damage to plant (100=total damage to plant; 0=no damage to plant), IPOHE / damage to plant (100=total damage to plant; 0=no damage to plant), SORVU: preemergent; for CHEAL damage rating / GALAP damage rating / KCHSC damage rating / LOLPE damage rating / POAAN damage rating / STEME damage rating / VERPE damage rating: pre-emergence, 100=total damage, 0=no damage
Summary of the method: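 Damage was rated visually from 0 (none) to 100 (total), at 20 DAA for pre-emergence and 15 d for post-emergence. Plants grew from safener-treated seed in a glasshouse at 24/18° C. or 20/16° C. day/night, 65% humidity, watered twice daily.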

With CN1CC(c2cc(C(F)(F)F)n(C)n2)C(C(=O)Nc2cccc(F)n2)C1=O (racemic) [Compound 24] the “damage to plant (100=total damage to plant; 0=no damage to plant), BIDPI” value (rate 15) was 0, the “damage to plant (100=total damage to plant; 0=no damage to plant), BIDPI” value (rate 30) was 0 and the “damage to plant (100=total damage to plant; 0=no damage to plant), BIDPI” value (rate 60) was 0. For the same compound, the “damage to plant (100=total damage to plant; 0=no damage to plant), BIDPI” value (rate 130) was 0, the “damage to plant (100=total damage to plant; 0=no damage to plant), BIDPI” value (rate 250) was 0 and the “damage to plant (100=total damage to plant; 0=no damage to plant), BIDPI” value (rate 500) was 0. For the same compound, the “damage to plant (100=total damage to plant; 0=no damage to plant), BRAPL” value (rate 15) was 0, the “damage to plant (100=total damage to plant; 0=no damage to plant), BRAPL” value (rate 30) was 20 and the “damage to plant (100=total damage to plant; 0=no damage to plant), BRAPL” value (rate 60) was 30. For the same compound, the “damage to plant (100=total damage to plant; 0=no damage to plant), BRAPL” value (rate 130) was 80, the “damage to plant (100=total damage to plant; 0=no damage to plant), BRAPL” value (rate 250) was 80 and the “damage to plant (100=total damage to plant; 0=no damage to plant), BRAPL” value (rate 500) was 90. The CHEAL damage rating (Rates 15) was 0, the CHEAL damage rating (Rates 30) was 0 and the CHEAL damage rating (Rates 60) was 0. The CHEAL damage rating (Rates 130) was 0, the CHEAL damage rating (Rates 250) was 40 and the CHEAL damage rating (Rates 500) was 50. For the same compound, the “damage to plant (100=total damage to plant; 0=no damage to plant), CYPES” value (rate 15) was 0, the “damage to plant (100=total damage to plant; 0=no damage to plant), CYPES” value (rate 30) was 0 and the “damage to plant (100=total damage to plant; 0=no damage to plant), CYPES” value (rate 60) was 0. The “damage to plant (100=total damage to plant; 0=no damage to plant), CYPES” value (rate 130) was 0, the “damage to plant (100=total damage to plant; 0=no damage to plant), CYPES” value (rate 250) was 0 and the “damage to plant (100=total damage to plant; 0=no damage to plant), CYPES” value (rate 500) was 0. The “damage to plant (100=total damage to plant; 0=no damage to plant), EPHHL” value (rate 15) was 0, the “damage to plant (100=total damage to plant; 0=no damage to plant), EPHHL” value (rate 30) was 0 and the “damage to plant (100=total damage to plant; 0=no damage to plant), EPHHL” value (rate 60) was 0. The “damage to plant (100=total damage to plant; 0=no damage to plant), EPHHL” value (rate 130) was 0, the “damage to plant (100=total damage to plant; 0=no damage to plant), EPHHL” value (rate 250) was 0 and the “damage to plant (100=total damage to plant; 0=no damage to plant), EPHHL” value (rate 500) was 10. For the same compound, the GALAP damage rating (Rates 15) was 0, the GALAP damage rating (Rates 30) was 0 and the GALAP damage rating (Rates 60) was 0. It also gave a GALAP damage rating (Rates 130) of 0, a GALAP damage rating (Rates 250) of 0 and a GALAP damage rating (Rates 500) of 0. For the same compound, the “damage to plant (100=total damage to plant; 0=no damage to plant), GLXMA” value (rate 15) was 0, the “damage to plant (100=total damage to plant; 0=no damage to plant), GLXMA” value (rate 30) was 0 and the “damage to plant (100=total damage to plant; 0=no damage to plant), GLXMA” value (rate 60) was 0. For the same compound, the “damage to plant (100=total damage to plant; 0=no damage to plant), GLXMA” value (rate 130) was 0, the “damage to plant (100=total damage to plant; 0=no damage to plant), GLXMA” value (rate 250) was 0 and the “damage to plant (100=total damage to plant; 0=no damage to plant), GLXMA” value (rate 500) was 0. The “damage to plant (100=total damage to plant; 0=no damage to plant), IPOHE” value (rate 15) was 0, the “damage to plant (100=total damage to plant; 0=no damage to plant), IPOHE” value (rate 30) was 0 and the “damage to plant (100=total damage to plant; 0=no damage to plant), IPOHE” value (rate 60) was 0. The “damage to plant (100=total damage to plant; 0=no damage to plant), IPOHE” value (rate 130) was 0, the “damage to plant (100=total damage to plant; 0=no damage to plant), IPOHE” value (rate 250) was 0 and the “damage to plant (100=total damage to plant; 0=no damage to plant), IPOHE” value (rate 500) was 0. The KCHSC damage rating (Rates 15) was 0, the KCHSC damage rating (Rates 30) was 0 and the KCHSC damage rating (Rates 60) was 0. It also gave a KCHSC damage rating (Rates 130) of 0, a KCHSC damage rating (Rates 250) of 0 and a KCHSC damage rating (Rates 500) of 10. It also gave an LOLPE damage rating (Rates 15) of 0, an LOLPE damage rating (Rates 30) of 0 and an LOLPE damage rating (Rates 60) of 0. For the same compound, the LOLPE damage rating (Rates 130) was 0, the LOLPE damage rating (Rates 250) was 0 and the LOLPE damage rating (Rates 500) was 10. The POAAN damage rating (Rates 15) was 0, the POAAN damage rating (Rates 30) was 0 and the POAAN damage rating (Rates 60) was 0. It also gave a POAAN damage rating (Rates 130) of 0, a POAAN damage rating (Rates 250) of 20 and a POAAN damage rating (Rates 500) of 40. The “damage to plant (100=total damage to plant; 0=no damage to plant), SORVU” value (rate 15) was 0, the “damage to plant (100=total damage to plant; 0=no damage to plant), SORVU” value (rate 30) was 0 and the “damage to plant (100=total damage to plant; 0=no damage to plant), SORVU” value (rate 60) was 0. The “damage to plant (100=total damage to plant; 0=no damage to plant), SORVU” value (rate 130) was 0, the “damage to plant (100=total damage to plant; 0=no damage to plant), SORVU” value (rate 250) was 0 and the “damage to plant (100=total damage to plant; 0=no damage to plant), SORVU” value (rate 500) was 0. It also gave an STEME damage rating (Rates 15) of 0, an STEME damage rating (Rates 30) of 0 and an STEME damage rating (Rates 60) of 0. The STEME damage rating (Rates 130) was 0, the STEME damage rating (Rates 250) was 10 and the STEME damage rating (Rates 500) was 70. The VERPE damage rating (Rates 15) was 0, the VERPE damage rating (Rates 30) was 0 and the VERPE damage rating (Rates 60) was 0. For the same compound, the VERPE damage rating (Rates 130) was 0, the VERPE damage rating (Rates 250) was 50 and the VERPE damage rating (Rates 500) was 60.
